ChEMBL document CHEMBL1201862, “PubChem BioAssay data set” (2004)
Values belong to the molecule of their own block, whether it stands above or below them. Active and inactive are the calls of the source.

Columns and labels:
[1] = NIH-3T3 fibroblast cytotoxicity, dose response, cytotoxicity control, cell-based, fluorescence, Alamar Blue, secondary assay (AID 2327); type: functional;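 also: NIH-3T3 mouse fibroblasts cultured with fluconazole at 8 µg/mL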
BJ [2] = assay: BJ-TERT fibroblast viability loss – cell-based, RAS-independent, luminescence, dose response (AID 1933); type: functional; settings: Homo sapiens
BJ [3] = assay: cells; type: functional, cell-based; settings: Homo sapiens
[4] = fluconazole-exposed Candida albicans growth modulators – fluorescence, retest, confirmation (AID 2467); type: functional, cell-based
BJ [5] = assay: BJ-TERT-LT-ST fibroblast viability loss – cell-based, RAS-independent, luminescence, dose response (AID 1935); type: functional; settings: Homo sapiens;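 also: BJ fibroblasts immortalized with TERT plus LT and ST oncogenes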
[6] = DRD fibroblast viability loss – cell-based, non-viral oncogenic, luminescence, dose response (AID 1934); type: functional; settings: Homo sapiens
[7] = target: T1, G-protein coupled receptor 55 (Homo sapiens, UniProt Q9Y2T6); assay: blockers of GPR55 signalling, imaged – imaging, image-based, counter-screen for GPR35 antagonist project, SAR follow-up (AID 2397); type: functional
INS1 = assay: INS-1E survival protection against cytokine death – cell-based, luminescence, retest, dose response (AID 449756); type: functional; settings: Rattus norvegicus;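 also: cell death triggered by IL-1 beta plus TNF-alpha plus IFN-gamma mixture; protective hits raise ATP signal compared with cytokine alone wells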
[8] = target: Sphingosine 1-phosphate receptor 5 (Homo sapiens, UniProt Q9H228); assay: Late stage counterscreen assay for S1P4 antagonists: Fluorescence dose response cell-based screening assay for antagonists of the Sphingosine 1-Phosphate Receptor 5 (S1P5). [Related pubchem assays (depositor defined):AID1510, AID1524, AID1692, AID1853, AID2332, AID489009, AID489017]; type: functional
[9] = target: Sphingosine 1-phosphate receptor 3 (Homo sapiens, UniProt Q99500); assay: Late stage counterscreen assay for S1P4 antagonists: Fluorescence dose response cell-based screening assay for antagonists of the Sphingosine 1-Phosphate Receptor 3 (S1P3). [Related pubchem assays (depositor defined):AID1510, AID1524, AID1692, AID1853, AID2332, AID489009, AID489017]; type: functional
[10] = target: T2, Sphingosine 1-phosphate receptor 1 (Homo sapiens, UniProt P21453); assay: Late stage counterscreen assay for S1P4 antagonists: Fluorescence dose response cell-based screening assay for antagonists of the Sphingosine 1-Phosphate Receptor 1 (S1P1). [Related pubchem assays (depositor defined):AID1510, AID1524, AID1692, AID1853, AID2332, AID489009, AID489017]; type: functional
[11] = target: T3, Heat shock factor protein 1 (Mus musculus, UniProt P38532); assay: decrease of HSF1-responsive luciferase luminescence – cell-based, NIH3T3, dose retest, confirmation (AID 2382); type: functional;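 also: NIH3T3 fibroblasts with HSF1-driven luciferase reporter stressed by proteasome inhibitor MG132; luminescence from HSF1-driven luciferase expression after 8 hours of MG132 stress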
T3 sequence (P38532 whole entry): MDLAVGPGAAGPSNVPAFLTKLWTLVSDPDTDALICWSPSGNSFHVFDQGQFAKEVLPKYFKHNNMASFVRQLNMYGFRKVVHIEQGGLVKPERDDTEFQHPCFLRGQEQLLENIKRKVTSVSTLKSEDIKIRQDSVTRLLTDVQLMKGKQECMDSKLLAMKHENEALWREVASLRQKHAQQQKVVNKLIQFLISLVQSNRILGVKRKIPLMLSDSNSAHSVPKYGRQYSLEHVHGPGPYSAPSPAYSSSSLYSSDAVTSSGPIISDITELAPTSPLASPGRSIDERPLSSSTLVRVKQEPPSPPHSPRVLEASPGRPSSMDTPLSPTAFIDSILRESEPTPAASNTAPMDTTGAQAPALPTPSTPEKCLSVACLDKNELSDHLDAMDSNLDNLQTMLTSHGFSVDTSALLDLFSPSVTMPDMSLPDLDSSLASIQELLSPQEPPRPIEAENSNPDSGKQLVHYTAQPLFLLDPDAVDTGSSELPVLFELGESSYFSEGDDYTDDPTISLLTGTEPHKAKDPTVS

[12] = viability of PTEN-deleted HCT116 cells – cell-based, HCT116 PTEN knockout, dose response (AID 1047); type: functional;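 also: HCT116 colon tumor cells with PTEN knocked out; cells exposed to compound for 60 hours before readout; potency for loss of cell viability measured by luminescence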
[13] = target: Sphingosine 1-phosphate receptor 2 (Homo sapiens, UniProt O95136); assay: Late stage counterscreen assay for S1P4 antagonists: Fluorescence dose response cell-based screening assay for antagonists of the Sphingosine 1-Phosphate Receptor 2 (S1P2). [Related pubchem assays (depositor defined):AID1510, AID1524, AID1692, AID1853, AID2332, AID489009, AID489017]; type: functional
[14] = target: T4, Sphingosine 1-phosphate receptor 4 (Homo sapiens, UniProt O95977); assay: Late stage fluorescence dose response cell-based screening assay for antagonists of the Sphingosine 1-Phosphate Receptor 4 (S1P4). [Related pubchem assays: 1524 (Confirmation screen (S1P4 antagonists).), 1510 (Primary screen (S1P4 antagonists).), 1853 (Summary AID (S1P4 antagonists).), 1692 (Dose response screen (S1P4 antagonists).)]; type: functional
T4 sequence (O95977 whole entry): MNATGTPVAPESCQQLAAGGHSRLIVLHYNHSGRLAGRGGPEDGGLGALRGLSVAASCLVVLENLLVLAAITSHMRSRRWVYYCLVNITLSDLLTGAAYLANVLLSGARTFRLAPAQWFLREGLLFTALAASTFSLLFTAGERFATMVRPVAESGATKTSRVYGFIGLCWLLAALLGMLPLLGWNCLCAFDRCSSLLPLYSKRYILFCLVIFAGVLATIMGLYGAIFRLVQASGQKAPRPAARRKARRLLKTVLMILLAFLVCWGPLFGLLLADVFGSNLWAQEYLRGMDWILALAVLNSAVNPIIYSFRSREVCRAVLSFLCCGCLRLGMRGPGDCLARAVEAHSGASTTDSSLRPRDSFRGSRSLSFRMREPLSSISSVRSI

[15] = viability of HCT116 lacking mutant beta-catenin – cell-based, human colon tumor, dose response (AID 1045); type: functional;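 also: HCT116 colon tumor cells with beta catenin knocked out; cells exposed to compound for 60 hours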
[16] = target: T4, Sphingosine 1-phosphate receptor 4; assay: Fluorescence dose response cell-based high throughput screening assay for antagonists of the Sphingosine 1-Phosphate Receptor 4 (S1P4). [Related pubchem assays: 1524 (Confirmation in triplicates.), 1510 (Primary screen.)]; type: functional
[17] = target: T2, Sphingosine 1-phosphate receptor 1; type: functional
[18] = target: T1, G-protein coupled receptor 55; assay: selective activators of receptor GPR55 – imaging, U2OS cells, beta-arrestin-GFP redistribution, primary screen (AID 1961); type: functional
Integrin alpha-4 = Integrin alpha-4 (Homo sapiens, UniProt P13612); assay: allosteric modulators of alpha4 integrin VLA-4 – cell-based, LIBS antibody binding, flow cytometry, SAR follow-up (AID 488791); type: functional
SUMO E1/E2 = SUMO E1/E2 (Homo sapiens, UniProt P63279+Q9UBE0+Q9UBT2); assay: SAR analysis of SUMOylation using HTRF in an in-Vitro dose response assay. [Related pubchem assays (depositor defined):AID2006, AID2011, AID2018, AID2069, AID2658]; type: functional
Cytochrome P450 2D6 = Cytochrome P450 2D6 (Homo sapiens, UniProt P10635);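 also: CYP2D6 member of a cytochrome P450 panel assay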
Cytochrome P450 1A2 [19] = target: T5, Cytochrome P450 1A2 (Homo sapiens, UniProt P05177);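 also: PubChem cytochrome P450 panel assay, CYP1A2 panel member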
T5 sequence (P05177 whole entry): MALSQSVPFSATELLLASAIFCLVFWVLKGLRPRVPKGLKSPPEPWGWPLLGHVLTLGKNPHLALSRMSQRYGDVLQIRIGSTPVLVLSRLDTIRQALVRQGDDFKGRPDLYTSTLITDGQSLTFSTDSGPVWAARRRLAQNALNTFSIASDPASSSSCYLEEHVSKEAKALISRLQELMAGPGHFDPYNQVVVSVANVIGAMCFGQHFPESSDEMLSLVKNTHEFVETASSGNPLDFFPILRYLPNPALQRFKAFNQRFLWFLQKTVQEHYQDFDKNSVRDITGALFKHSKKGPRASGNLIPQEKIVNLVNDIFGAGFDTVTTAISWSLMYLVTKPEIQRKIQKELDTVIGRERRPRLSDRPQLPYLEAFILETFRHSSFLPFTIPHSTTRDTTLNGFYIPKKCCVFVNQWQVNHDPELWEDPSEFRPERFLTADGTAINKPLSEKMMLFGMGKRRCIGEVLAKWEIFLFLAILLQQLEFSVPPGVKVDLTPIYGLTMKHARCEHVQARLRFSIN

[20] = target: T6, Tyrosine-protein phosphatase non-receptor type 7 (Homo sapiens, UniProt P35236); type: functional
T6 sequence (P35236 whole entry): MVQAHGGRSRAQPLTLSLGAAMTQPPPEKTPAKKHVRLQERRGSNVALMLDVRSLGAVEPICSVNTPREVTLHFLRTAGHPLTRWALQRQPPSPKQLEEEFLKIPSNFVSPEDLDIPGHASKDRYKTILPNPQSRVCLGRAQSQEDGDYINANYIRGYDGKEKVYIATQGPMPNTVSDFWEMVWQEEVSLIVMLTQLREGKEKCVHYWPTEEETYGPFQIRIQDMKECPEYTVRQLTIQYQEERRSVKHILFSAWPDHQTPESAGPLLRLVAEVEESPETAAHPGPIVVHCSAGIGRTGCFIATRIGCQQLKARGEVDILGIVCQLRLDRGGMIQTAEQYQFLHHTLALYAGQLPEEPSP

[21] = target: T7, Tyrosine-protein phosphatase non-receptor type 22 (Homo sapiens, UniProt Q9Y2R2); type: functional
T7 sequence (Q9Y2R2 whole entry): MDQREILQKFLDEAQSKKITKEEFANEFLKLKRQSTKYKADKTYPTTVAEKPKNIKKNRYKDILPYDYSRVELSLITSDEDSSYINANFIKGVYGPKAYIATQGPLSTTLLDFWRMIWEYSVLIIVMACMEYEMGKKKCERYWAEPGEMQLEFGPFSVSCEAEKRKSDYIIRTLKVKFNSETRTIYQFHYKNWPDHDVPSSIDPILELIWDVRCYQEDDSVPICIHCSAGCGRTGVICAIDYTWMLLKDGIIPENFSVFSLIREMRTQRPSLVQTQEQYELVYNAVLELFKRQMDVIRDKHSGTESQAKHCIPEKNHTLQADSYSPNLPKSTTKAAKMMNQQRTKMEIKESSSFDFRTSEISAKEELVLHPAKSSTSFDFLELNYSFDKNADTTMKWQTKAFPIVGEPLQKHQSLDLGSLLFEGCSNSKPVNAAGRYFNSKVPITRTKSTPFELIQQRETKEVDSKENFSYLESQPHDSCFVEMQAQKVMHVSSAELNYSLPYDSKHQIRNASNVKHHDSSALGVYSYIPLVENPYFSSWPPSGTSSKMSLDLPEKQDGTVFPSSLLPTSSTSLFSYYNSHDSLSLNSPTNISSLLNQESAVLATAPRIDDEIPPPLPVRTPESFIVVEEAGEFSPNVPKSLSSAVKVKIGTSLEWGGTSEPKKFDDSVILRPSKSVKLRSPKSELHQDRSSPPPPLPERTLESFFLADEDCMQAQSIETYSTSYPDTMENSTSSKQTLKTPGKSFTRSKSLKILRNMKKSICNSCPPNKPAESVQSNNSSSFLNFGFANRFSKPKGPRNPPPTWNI

[22] = target: T7, Tyrosine-protein phosphatase non-receptor type 22; type: functional; remark: listed apart in the source
[23] = target: T2, Sphingosine 1-phosphate receptor 1; assay: Fluorescence-based counterscreen assay for S1P4 agonists: Cell-based dose response high throughput screening assay to identify agonists of the Sphingosine 1-Phosphate Receptor 1 (S1P1). [Related pubchem assays (depositor defined):AID1509, AID1523, AID1801, AID463107, AID463118, AID463119, AID463122, AID463123, AID463129, AID463225, AID504400, AID504460]; type: functional
[24] = target: T4, Sphingosine 1-phosphate receptor 4; assay: Fluorescence dose response cell-based high throughput screening assay for agonists of the Sphingosine 1-Phosphate Receptor 4 (S1P4). [Related pubchem assays: 1509 (Primary screen.), 1523 (Confirmation screen in triplicates.)]; type: functional
Cytochrome P450 2C19 = Cytochrome P450 2C19 (Homo sapiens, UniProt P33261); assay: Cytochrome panel assay with activity outcomes. Panel member name: p450-cyp2c19 Compounds with AC50 equal or less than 10 uM are considered active; type: functional; settings: read-out: AC50
Cytochrome P450 1A2 [25] = target: T5, Cytochrome P450 1A2; remark: listed apart in the source

T2 sequence (P21453 whole entry): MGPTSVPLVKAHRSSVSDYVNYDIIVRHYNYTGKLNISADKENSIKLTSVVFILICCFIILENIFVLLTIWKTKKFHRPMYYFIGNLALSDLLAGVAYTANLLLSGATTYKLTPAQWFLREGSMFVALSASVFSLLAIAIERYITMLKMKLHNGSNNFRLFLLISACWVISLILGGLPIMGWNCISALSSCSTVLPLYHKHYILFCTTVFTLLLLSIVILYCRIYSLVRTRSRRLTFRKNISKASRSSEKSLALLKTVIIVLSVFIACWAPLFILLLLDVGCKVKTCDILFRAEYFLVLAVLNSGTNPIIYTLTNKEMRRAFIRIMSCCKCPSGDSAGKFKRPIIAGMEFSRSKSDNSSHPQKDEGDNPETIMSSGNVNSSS
T1 sequence (Q9Y2T6 whole entry): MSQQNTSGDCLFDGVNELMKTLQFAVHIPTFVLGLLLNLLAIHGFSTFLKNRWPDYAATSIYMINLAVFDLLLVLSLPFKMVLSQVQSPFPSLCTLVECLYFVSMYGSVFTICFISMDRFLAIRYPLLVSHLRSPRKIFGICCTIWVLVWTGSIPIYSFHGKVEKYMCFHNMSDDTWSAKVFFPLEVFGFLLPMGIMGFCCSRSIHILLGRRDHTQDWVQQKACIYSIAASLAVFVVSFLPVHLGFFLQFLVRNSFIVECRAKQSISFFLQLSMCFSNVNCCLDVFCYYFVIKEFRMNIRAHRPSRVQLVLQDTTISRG
SUMO E1/E2, sequence (Q9UBE0 whole entry): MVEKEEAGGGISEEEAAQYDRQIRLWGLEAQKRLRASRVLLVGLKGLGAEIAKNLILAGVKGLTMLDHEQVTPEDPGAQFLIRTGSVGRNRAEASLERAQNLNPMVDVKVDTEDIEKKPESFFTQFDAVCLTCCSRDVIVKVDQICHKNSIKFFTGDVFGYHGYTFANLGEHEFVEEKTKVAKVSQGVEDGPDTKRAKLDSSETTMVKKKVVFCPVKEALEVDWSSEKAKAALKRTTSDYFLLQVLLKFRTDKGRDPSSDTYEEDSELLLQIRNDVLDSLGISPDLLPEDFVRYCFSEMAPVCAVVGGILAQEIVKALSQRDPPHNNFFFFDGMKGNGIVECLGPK
SUMO E1/E2, sequence (Q9UBT2 whole entry): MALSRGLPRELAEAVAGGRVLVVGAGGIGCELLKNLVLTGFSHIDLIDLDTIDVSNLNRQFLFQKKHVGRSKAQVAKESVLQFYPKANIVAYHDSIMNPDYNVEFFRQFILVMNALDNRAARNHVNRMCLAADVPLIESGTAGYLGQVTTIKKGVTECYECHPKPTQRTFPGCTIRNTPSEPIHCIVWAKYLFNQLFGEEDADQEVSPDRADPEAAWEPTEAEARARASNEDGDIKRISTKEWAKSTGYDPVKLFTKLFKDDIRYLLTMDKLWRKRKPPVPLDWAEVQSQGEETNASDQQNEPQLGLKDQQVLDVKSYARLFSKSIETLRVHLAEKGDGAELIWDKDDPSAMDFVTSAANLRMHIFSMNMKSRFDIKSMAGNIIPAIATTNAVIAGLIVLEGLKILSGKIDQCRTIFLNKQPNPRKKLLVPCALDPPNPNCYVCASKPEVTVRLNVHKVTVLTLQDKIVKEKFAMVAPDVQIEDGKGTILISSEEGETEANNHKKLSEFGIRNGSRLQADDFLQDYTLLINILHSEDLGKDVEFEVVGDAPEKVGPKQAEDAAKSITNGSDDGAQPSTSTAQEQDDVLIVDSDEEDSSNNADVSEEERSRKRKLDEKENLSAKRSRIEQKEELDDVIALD
SUMO E1/E2, sequence (P63279 whole entry): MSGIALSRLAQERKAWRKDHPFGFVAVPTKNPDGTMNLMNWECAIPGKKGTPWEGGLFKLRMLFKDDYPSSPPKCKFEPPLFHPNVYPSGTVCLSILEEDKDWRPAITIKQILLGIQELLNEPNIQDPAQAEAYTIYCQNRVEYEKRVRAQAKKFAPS
Sphingosine 1-phosphate receptor 3, sequence (Q99500 whole entry): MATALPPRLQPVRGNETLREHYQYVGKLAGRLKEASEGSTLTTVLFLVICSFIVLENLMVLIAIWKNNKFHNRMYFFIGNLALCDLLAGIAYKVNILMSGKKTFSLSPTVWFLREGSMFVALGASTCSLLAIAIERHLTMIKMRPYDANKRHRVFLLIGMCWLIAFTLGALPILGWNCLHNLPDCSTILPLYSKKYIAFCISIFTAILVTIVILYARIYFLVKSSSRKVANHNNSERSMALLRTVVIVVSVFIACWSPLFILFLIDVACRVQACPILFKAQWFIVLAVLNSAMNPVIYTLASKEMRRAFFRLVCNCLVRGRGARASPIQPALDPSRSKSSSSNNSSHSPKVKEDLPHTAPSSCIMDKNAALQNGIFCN
Cytochrome P450 2D6, sequence (P10635 whole entry): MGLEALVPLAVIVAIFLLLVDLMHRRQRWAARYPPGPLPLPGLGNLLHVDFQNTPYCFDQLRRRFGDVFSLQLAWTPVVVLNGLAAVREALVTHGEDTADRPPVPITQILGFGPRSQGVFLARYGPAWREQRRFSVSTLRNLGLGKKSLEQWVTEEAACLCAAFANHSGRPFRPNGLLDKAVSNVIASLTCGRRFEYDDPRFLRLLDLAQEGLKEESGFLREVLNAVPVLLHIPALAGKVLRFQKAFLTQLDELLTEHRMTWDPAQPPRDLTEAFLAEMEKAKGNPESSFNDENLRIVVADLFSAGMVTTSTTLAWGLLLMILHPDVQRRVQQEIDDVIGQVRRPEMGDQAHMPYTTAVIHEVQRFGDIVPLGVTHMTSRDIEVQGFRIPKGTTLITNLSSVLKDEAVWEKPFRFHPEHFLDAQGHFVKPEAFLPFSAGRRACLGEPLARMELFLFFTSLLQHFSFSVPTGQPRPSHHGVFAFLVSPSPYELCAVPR
Integrin alpha-4, sequence (P13612 whole entry): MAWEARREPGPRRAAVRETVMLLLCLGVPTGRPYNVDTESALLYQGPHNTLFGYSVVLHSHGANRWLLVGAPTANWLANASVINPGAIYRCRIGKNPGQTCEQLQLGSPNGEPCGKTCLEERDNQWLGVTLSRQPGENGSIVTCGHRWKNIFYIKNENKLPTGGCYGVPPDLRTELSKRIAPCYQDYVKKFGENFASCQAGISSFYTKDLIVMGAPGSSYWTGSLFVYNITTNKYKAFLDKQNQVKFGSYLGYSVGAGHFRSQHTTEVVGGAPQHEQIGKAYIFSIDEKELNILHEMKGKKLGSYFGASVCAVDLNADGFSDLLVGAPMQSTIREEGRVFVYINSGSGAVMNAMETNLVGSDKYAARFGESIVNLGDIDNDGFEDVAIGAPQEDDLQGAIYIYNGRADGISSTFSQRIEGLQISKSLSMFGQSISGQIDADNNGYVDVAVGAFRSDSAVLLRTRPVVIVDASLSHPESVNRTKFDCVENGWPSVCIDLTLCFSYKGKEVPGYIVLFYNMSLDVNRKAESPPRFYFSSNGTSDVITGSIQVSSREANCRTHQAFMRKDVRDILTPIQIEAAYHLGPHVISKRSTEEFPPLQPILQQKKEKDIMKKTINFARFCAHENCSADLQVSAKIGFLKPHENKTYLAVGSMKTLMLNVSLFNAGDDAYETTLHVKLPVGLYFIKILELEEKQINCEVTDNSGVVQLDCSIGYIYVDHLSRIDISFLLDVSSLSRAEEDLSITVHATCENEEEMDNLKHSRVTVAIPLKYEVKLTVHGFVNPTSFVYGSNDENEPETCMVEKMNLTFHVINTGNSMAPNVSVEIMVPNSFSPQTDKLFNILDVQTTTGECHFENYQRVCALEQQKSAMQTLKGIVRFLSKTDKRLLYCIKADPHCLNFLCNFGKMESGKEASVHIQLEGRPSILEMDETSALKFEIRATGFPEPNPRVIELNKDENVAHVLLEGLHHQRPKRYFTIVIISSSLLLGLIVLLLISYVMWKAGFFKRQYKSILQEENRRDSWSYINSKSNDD
Cytochrome P450 2C19, sequence (P33261 whole entry): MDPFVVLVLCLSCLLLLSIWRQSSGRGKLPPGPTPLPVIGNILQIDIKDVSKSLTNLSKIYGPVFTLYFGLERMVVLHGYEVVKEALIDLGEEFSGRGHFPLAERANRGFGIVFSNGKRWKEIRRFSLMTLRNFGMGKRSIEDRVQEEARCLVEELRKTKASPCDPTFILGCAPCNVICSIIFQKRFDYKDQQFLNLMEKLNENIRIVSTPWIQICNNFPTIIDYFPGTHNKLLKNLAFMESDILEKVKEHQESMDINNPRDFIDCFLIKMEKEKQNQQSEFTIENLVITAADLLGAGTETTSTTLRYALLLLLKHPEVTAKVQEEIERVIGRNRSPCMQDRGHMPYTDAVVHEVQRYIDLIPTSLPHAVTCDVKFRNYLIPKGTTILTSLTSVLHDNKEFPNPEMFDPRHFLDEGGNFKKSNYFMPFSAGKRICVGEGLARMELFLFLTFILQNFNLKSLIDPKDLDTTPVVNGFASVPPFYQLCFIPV
Sphingosine 1-phosphate receptor 2, sequence (O95136 whole entry): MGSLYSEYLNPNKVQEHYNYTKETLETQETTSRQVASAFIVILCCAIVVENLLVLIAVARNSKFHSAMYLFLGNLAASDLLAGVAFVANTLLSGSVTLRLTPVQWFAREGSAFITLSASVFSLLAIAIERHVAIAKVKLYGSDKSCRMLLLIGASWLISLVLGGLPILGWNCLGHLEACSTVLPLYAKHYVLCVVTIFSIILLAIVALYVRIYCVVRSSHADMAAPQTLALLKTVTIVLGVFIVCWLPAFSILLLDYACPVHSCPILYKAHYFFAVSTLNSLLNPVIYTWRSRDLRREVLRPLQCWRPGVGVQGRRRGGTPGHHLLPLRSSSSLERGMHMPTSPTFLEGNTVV

AC50 (Cytochrome P450 2D6): inconclusive | AC50 (Cytochrome P450 1A2 [19]): inconclusive
SMILES: COc1ccccc1CN1CC2(CCN(S(C)(=O)=O)CC2)C1

IC50 [20]: > 79.4 µM (inactive) | IC50 [21]: > 79.4 µM (inactive) | IC50 [22]: > 79.4 µM (inactive)
SMILES: O=C(c1ccncc1)N1CCN(C(=O)c2ccncc2)CC1

EC50 [23]: > 49.8 µM (inactive) | EC50 [24]: > 49.8 µM (not active) | AC50 (Cytochrome P450 2C19): 0.794 µM (inconclusive) | AC50 (Cytochrome P450 1A2 [25]): 5.01 µM (inconclusive)
SMILES: COC(=O)c1c(-n2c(C)cc(C=O)c2C)sc2c1CCCC2

Second part, the molecule before the results:

SMILES: Cn1cc(/C=C/c2cc[n+](C)cc2)c2cc(Cl)ccc21
EC50 [1]: > 150 µM (inactive) | EC50 (BJ [2]): 9.8 µM (active) | EC50 (BJ [3]): 16.2 µM (active) | EC50 [4]: 1.29 µM (active) | EC50 (BJ [5]): > 150 µM (not active) | EC50 [6]: 22.1 µM (inconclusive) | IC50 [7]: 3.42 µM (active) | AC50 (INS1): 4.33 µM (active)

SMILES: CCOC(=O)/C(=C\c1ccc(OC(F)F)cc1)C1=Nn2c(nnc2-c2ccc(Cl)cc2)SC1
IC50 [8]: 0.034 µM (active) | IC50 [9]: 0.494 µM (active) | IC50 [10]: 0.351 µM (active) | EC50 [11]: 6.62 µM (active) | EC50 [12]: 10.2 µM (active) | IC50 [13]: 0.614 µM (active) | IC50 [14]: 0.342 µM (active) | EC50 [15]: 9.67 µM (active) | IC50 [16]: 0.168 µM (active) | IC50 [17]: 6.1 µM (active) | EC50 [18]: > 32 µM (inactive) | EC50 (Integrin alpha-4): 11.8 µM (active) | AC50 (INS1): 4.22 µM (active)

SMILES: S=c1[nH]nc(-c2cc(-c3ccccc3)[nH]n2)n1N=Cc1ccc(Cl)c(Cl)c1
IC50 (SUMO E1/E2): > 100 µM (inactive)
